What all share (experiment): whole-cell patch clamp, HEK […]
(In patch-clamp work, channel activity is measured electrically.)

The test system of assay [1] is T1, sTRP1 (scorpion TRP1).
T1 construct: full-length cDNA (791 residues) cloned by RACE PCR, in pIRES2-EGFP vector, transiently expressed in HEK 293T cells
Type of assay: cell-based, Olivierus martensii. As to conditions: current evoked by 2 mM citronellal after sensitization.

Assay [2] concerns the target T2, dTRPγ (Drosophila melanogaster, UniProt Q9VJJ7).
T2 construct: gene Trpgamma
T2 sequence (Q9VJJ7 1-1128): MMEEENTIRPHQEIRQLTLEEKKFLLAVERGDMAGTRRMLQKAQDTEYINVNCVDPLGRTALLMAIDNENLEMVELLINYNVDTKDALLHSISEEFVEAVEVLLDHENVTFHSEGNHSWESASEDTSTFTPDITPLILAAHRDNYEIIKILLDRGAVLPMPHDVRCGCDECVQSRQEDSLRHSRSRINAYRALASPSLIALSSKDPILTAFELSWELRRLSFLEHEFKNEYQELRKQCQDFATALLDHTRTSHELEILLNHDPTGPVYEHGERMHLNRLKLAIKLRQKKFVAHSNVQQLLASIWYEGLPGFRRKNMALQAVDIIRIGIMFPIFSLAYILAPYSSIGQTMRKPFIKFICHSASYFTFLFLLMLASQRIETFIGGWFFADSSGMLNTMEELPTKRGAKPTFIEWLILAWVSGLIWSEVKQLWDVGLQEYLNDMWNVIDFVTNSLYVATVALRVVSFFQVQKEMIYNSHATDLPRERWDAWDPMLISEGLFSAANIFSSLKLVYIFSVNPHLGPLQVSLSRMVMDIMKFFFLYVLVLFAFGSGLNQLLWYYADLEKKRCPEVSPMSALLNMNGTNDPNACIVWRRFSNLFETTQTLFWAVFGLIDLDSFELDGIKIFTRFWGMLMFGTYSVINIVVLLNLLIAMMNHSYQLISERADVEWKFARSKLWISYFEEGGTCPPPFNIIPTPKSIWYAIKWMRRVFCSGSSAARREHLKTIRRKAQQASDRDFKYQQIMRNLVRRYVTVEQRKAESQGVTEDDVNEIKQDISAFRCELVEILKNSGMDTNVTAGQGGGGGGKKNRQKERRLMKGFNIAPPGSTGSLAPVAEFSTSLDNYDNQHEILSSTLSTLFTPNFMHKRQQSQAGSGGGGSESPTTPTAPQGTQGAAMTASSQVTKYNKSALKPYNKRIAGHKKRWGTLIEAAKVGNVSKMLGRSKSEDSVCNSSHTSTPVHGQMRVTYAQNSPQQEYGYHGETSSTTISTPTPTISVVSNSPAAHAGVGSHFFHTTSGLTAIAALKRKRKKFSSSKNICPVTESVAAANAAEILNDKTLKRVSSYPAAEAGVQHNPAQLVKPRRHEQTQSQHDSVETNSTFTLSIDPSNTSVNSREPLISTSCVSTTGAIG
The format is cell-based. As to conditions: agonist.

Assay [3] relates to T1, sTRP1 (scorpion TRP1). The format is cell-based, Olivierus martensii. As to conditions: agonist, after full sensitization.
Assay [4] deals with T2, dTRPγ. The format is cell-based.
The target in assay [5] is T2, dTRPγ. Type of assay: cell-based. As to conditions: dTRPγ mutant.
For assay [6], the target named is T3, dTRPγ (Drosophila melanogaster, UniProt Q9VJJ7, V515A).
T3 construct: gene Trpgamma
T3 sequence (Q9VJJ7 1-1128 V515A): T2 sequence (Q9VJJ7 1-1128) with V515A
Type of assay: cell-based. The note with it: dTRPγ mutant.

The structures appear in SMILES notation. Changes are numbered by the printed parent chain.

We go through five molecules from article PMC9170154, “Identification of an arthropod molecular target for plant-derived natural repellents” (Proceedings of the National Academy of Sciences of the …, 2022).

By IC50 is commonly meant the point on the concentration scale where inhibition reaches its midpoint. As for `NCCOB(c1ccccc1)c1ccccc1` [2-aminoethoxydiphenyl borate], the IC50 in the assay on sTRP1 (scorpion TRP1) [1] (inhibitor, nH 1.3) came to 48.3 ± 5.58 µM.
A word on the EC50: it is the midpoint of the concentration-response curve. In the case of `CC12CCC(CC1=O)C2(C)C` (centres unmarked) [camphor], the “whole-cell patch clamp, HEK 293T” value at dTRPγ [2] is “We here show that camphor activates both sTRP1 and dTRPγ (SI Appendix, Fig. S11)”. In addition, the EC50 in the assay with sTRP1 (scorpion TRP1) [3] (nH 2.4) was found to be 3300 ± 200 µM.
In the case of `CC(C)=CCCC(C)CC=O` (centres unmarked) [citronellal], the figures for the EC50 in the assay with sTRP1 (scorpion TRP1) [3] (nH 3.3) and on dTRPγ [4] were 560 ± 10 µM and 870 ± 50 µM, respectively. Also, the “whole-cell patch clamp, HEK 293T” value on dTRPγ [5] is “mutant V513L reduced the response to citronellal and citronellol”.
With `CC(C)=CCCC(C)CCO` (centres unmarked) [citronellol], the concentration for a half-maximal effect (EC50) in the assay with sTRP1 (scorpion TRP1) [3] (nH 3.6) worked out at 300 ± 10 µM; on dTRPγ [4], 490 ± 20 µM. Also, the “whole-cell patch clamp, HEK 293T” value on dTRPγ [5] is “mutant V513L reduced the response to citronellal and citronellol”; at dTRPγ [6] it was “the V515A substitution selectively impaired the sensitivity to citronellol and camphor”.
Regarding `Cl.Cl.Cl.Cl.Cl.Cl.N.N.N.N.N.N.N.N.N.N.N.N.N.N.[O-2].[O-2].[Ru+3].[Ru+3].[Ru+4]` [ruthenium red], in the assay on sTRP1 (scorpion TRP1) [1] (channel blocker, nH 1.6), the IC50 is 3.12 ± 0.29 µM.
